Laboratory results reported in patent EP4745137A1 (Gluetacs Therapeutics (Shanghai) Co., Ltd., priority 2023, dated 2025).

What was measured:
IKZF1 = molecular target: T1, IKZF1 (Homo sapiens, UniProt Q13422+Q96SW2); experiment: Western-blot assay of substrate protein degradation in hPBMCs, IKZF1; type: cell-based; conditions: 24 hours of compound treatment
T1 construct: endogenous in cells; host or cells: hPBMCs (Milecell Biotechnologies)

[1] = system: Human breast cancer cells (MDA-MB-231); experiment: Tumor cell proliferation inhibition (CellTiter-Meiluncell Luminescent Cell Viability Assay), MDA-MB-231; conditions: for inhibition at 0.01 µM: MDA-MB-231, read-out: Inhibition rate (%) at 10 nM; for inhibition at 0.5 µM: MDA-MB-231, read-out: Inhibition rate (%) at 500 nM
Experimental: The tumor cells used herein were cultured in a cell culture medium listed in table 2 at 37°C in an incubator with 5% CO2. Prior to experimentation, all cell lines used were correctly identified by STR profiling, and tested negative for mycoplasma contamination using a mycoplasma detection kit through routine screenings.
On the following day, the test compounds of the present disclosure were subjected to serial dilution. […] Subsequently, 0.5 µL of the test compound dilution was transferred into the 96-well plate containing the cells, with each well containing 100 µL of cell culture medium. […] Into the 96-well plate, the diluted test compounds and corresponding detection reagents were added, resulting in final test compound concentrations of 500 nM and 10 nM, respectively. The experimental procedure is described below using the diluted 2 µM test compound as an example.
After the cells were treated with the compounds of the present disclosure for a specified period (the treatment durations were shown in Table 3), the cell viability assay reagent was added to the culture medium according to the kit's instructions to determine cell viability. […] All controls were treated using the same procedure as the compounds of the present disclosure. The growth inhibition curves for the compounds of the present disclosure were plotted using Prism GraphPad software, and the IC50 values were calculated therefrom.

IKZF2 = molecular target: T2, IKZF2 (Homo sapiens, UniProt Q96SW2+Q9UKS7); experiment: Western-blot assay of substrate protein degradation in hPBMCs, IKZF2; type: cell-based; conditions: 24 hours of compound treatment
T2 construct: endogenous in cells; host or cells: hPBMCs (Milecell Biotechnologies)
T2 sequence (Q9UKS7 whole entry): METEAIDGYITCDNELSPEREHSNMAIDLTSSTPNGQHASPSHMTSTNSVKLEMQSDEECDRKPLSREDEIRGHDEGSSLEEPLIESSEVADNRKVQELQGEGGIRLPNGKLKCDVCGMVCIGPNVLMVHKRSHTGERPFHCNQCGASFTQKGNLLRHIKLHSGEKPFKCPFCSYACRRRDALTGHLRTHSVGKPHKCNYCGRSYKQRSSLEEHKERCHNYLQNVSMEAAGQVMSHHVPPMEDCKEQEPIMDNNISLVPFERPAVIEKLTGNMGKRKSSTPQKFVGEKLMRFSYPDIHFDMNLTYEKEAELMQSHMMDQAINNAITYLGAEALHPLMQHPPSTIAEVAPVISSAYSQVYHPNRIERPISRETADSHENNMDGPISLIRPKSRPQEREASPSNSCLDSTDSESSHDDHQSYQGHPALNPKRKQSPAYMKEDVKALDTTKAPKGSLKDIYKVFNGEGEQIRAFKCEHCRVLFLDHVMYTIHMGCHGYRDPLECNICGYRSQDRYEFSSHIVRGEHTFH
T2 sequence (Q96SW2 whole entry): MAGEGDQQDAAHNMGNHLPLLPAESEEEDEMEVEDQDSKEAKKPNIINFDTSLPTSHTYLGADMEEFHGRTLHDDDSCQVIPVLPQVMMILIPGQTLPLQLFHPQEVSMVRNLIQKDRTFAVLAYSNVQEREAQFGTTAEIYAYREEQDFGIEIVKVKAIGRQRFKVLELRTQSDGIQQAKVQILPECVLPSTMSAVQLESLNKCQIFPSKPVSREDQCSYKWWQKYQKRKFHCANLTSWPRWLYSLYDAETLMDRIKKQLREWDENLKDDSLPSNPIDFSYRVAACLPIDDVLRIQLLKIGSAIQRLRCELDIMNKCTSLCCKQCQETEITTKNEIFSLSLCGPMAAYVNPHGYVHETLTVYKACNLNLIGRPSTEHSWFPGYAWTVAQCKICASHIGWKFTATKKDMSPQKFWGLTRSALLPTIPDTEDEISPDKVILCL
T2 sequence (Q16531 whole entry partner): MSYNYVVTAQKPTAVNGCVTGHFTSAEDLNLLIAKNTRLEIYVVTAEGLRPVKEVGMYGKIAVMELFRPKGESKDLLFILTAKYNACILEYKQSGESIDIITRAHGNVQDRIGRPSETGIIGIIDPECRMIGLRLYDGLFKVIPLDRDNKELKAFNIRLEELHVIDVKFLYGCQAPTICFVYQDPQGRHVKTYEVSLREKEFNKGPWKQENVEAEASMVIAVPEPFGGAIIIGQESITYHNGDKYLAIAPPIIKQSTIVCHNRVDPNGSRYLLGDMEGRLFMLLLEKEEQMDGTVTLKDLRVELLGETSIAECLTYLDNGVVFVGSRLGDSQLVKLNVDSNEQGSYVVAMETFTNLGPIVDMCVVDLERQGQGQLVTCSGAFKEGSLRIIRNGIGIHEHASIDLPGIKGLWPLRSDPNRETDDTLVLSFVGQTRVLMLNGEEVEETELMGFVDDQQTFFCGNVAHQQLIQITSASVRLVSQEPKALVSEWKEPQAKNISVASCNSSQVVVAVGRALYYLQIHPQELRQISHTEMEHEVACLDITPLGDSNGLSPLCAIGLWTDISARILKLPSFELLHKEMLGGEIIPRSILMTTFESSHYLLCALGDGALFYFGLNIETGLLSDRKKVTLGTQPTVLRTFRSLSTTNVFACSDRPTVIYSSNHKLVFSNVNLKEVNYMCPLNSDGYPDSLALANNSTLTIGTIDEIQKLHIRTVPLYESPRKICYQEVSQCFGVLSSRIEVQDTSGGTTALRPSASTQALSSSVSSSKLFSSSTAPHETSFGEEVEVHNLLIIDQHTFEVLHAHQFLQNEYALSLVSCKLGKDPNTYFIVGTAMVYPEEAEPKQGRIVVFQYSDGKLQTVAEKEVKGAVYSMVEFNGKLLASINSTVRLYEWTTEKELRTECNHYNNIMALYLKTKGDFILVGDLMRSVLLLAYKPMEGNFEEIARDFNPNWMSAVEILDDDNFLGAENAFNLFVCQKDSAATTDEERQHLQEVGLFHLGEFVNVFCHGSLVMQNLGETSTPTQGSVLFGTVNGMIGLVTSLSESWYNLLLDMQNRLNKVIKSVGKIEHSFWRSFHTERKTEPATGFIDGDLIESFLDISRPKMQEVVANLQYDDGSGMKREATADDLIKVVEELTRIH

WEE1 = molecular target: T3, WEE1 (Homo sapiens, UniProt P30291+Q96SW2); experiment: Western-blot assay of substrate protein degradation in hPBMCs, WEE1; type: cell-based; conditions: 24 hours of compound treatment
T3 construct: endogenous in cells; host or cells: hPBMCs (Milecell Biotechnologies)
T3 sequence (P30291 whole entry): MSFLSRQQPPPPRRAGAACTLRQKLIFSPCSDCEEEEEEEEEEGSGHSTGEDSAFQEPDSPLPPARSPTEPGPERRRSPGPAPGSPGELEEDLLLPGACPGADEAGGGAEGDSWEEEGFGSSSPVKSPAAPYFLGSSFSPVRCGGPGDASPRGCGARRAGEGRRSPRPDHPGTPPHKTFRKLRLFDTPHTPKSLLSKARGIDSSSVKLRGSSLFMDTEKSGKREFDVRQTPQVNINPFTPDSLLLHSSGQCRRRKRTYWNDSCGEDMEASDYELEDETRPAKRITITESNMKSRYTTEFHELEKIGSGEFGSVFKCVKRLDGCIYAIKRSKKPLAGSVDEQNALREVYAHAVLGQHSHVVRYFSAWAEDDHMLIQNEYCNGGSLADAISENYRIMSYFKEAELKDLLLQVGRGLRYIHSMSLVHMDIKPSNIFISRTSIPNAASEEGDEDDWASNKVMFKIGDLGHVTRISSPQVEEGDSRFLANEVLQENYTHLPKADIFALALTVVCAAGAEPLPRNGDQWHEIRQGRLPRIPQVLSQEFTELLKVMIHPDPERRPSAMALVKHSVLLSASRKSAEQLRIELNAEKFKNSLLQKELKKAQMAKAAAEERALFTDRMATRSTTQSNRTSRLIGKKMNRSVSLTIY
T3 sequence (Q96SW2 whole entry): as the sequence (Q96SW2 whole entry) above
T3 sequence (Q16531 whole entry partner): as the sequence (Q16531 whole entry partner) above

CK1α = molecular target: T4, CK1α (Homo sapiens, UniProt P48729+Q96SW2); experiment: Western-blot assay of substrate protein degradation in hPBMCs, CK1α; type: cell-based; conditions: 24 hours of compound treatment
T4 construct: endogenous in cells; host or cells: hPBMCs (Milecell Biotechnologies)
T4 sequence (P48729 whole entry): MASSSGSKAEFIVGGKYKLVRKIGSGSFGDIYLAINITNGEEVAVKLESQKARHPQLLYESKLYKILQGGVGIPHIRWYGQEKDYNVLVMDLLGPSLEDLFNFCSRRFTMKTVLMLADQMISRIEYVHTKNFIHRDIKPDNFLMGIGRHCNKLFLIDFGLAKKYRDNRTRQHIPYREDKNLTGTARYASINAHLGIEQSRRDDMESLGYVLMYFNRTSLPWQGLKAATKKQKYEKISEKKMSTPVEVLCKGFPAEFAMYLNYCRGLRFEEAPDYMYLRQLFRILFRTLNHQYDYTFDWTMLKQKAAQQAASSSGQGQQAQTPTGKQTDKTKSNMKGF
T4 sequence (Q96SW2 whole entry): as the sequence (Q96SW2 whole entry) above
T4 sequence (Q16531 whole entry partner): as the sequence (Q16531 whole entry partner) above

IKZF3 = molecular target: T5, IKZF3 (Homo sapiens, UniProt Q96SW2+Q9UKT9); experiment: Western-blot assay of substrate protein degradation in hPBMCs, IKZF3; type: cell-based; conditions: 24 hours of compound treatment
T5 construct: endogenous in cells; host or cells: hPBMCs (Milecell Biotechnologies)
T5 sequence (Q9UKT9 whole entry): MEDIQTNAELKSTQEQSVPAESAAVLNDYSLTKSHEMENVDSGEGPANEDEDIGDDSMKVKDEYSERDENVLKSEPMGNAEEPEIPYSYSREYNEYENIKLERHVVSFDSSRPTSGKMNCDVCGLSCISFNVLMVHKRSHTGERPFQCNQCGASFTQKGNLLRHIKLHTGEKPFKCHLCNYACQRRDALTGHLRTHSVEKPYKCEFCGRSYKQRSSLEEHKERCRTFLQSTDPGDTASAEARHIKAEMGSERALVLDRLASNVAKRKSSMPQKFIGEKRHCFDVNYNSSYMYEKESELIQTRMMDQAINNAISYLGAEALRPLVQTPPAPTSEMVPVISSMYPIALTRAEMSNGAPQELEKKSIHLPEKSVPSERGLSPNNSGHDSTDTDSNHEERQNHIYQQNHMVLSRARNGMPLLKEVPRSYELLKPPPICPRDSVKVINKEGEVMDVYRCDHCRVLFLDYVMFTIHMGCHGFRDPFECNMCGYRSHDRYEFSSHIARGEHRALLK
T5 sequence (Q96SW2 whole entry): as the sequence (Q96SW2 whole entry) above
T5 sequence (Q16531 whole entry partner): as the sequence (Q16531 whole entry partner) above

GSPT1 = molecular target: T6, GSPT1 (Homo sapiens, UniProt P15170+Q96SW2); experiment: Western-blot assay of substrate protein degradation in hPBMCs, GSPT1; type: cell-based; conditions: 24 hours of compound treatment
T6 construct: endogenous in cells; host or cells: hPBMCs (Milecell Biotechnologies)
T6 sequence (P15170 whole entry): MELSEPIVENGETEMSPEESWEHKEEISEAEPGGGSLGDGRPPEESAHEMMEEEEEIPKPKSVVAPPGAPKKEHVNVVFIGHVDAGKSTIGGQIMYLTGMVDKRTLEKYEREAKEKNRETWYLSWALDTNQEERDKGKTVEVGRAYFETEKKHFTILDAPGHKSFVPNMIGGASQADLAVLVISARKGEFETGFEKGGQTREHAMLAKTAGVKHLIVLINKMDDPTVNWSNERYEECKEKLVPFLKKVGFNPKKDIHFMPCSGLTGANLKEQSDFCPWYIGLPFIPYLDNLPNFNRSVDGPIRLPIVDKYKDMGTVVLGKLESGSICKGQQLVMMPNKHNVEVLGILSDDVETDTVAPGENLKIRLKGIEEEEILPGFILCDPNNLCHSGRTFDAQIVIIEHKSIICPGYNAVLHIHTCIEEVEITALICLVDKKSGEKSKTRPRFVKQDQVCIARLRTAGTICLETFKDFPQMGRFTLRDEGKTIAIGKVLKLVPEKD
T6 sequence (Q96SW2 whole entry): as the sequence (Q96SW2 whole entry) above
T6 sequence (Q16531 whole entry partner): as the sequence (Q16531 whole entry partner) above

[2] = system: Human acute T lymphocytic leukemia cells (Molt-4); experiment: Tumor cell proliferation inhibition (CellTiter-Meiluncell Luminescent Cell Viability Assay), Molt-4; conditions: MOLT-4, 96 h, read-out: inhibitory activity (IC50, nM) against tumor cells proliferation, Molt 4
[3] = molecular target: T7, human Cereblon WT GST-tagged protein (Homo sapiens, UniProt Q96SW2); experiment: CRBN-binding affinity by HTRF (CEREBLON BINDING kit); conditions: HTRF inhibitory activity, CEREBLON BINDING kit; read-out: HTRF IC50
T7 construct: purchased CISBIO 64BDCRBNPEH
T7 sequence (Q96SW2 whole entry): as the sequence (Q96SW2 whole entry) above

[4] = 50 nM and 500 nM tested (concentration behind the class not stated)
[5] = compounds tested at 50 nM and 500 nM (concentration of the table not stated)

| SMILES | IKZF 1 substrate protein remaining % (IKZF1; [4]) | inhibition at 0.01 µM [1] [%] | inhibition at 0.5 µM [1] [%] | IKZF2 substrate protein remaining % (IKZF2; [4]) | Weel substrate protein remaining % (WEE1; [4]) | CK1a substrate protein remaining % (CK1α; [4]) | IKZF3 substrate protein remaining % (IKZF3; [4]) | GSPT1 substrate protein remaining % (GSPT1; [4]) | IKZF 1 substrate protein remaining % (IKZF1; [5]) | IC50 [2] [nM] | IKZF2 substrate protein remaining % (IKZF2; [5]) | Weel substrate protein remaining % (WEE1; [5]) | CK1a substrate protein remaining % (CK1α; [5]) | IC50 [3] [nM] | IKZF3 substrate protein remaining % (IKZF3; [5]) | GSPT1 substrate protein remaining % (GSPT1; [5]) |
| --- | --- | --- | --- | --- | --- | --- | --- | --- | --- | --- | --- | --- | --- | --- | --- | --- |
| O=C1CCC(N2C(=O)c3ccc(CN4CCN(c5nc(N6CCCC6)nc6c5SCC6)CC4)cc3C2=O)C(=O)N1 (centres unmarked) [GT-08004, 2-(2,6-dioxopiperidin-3-yl)-5-((4-(2-(pyrrolidin-1-yl)-6,7-dihydrothieno[3,2-d]pyrimidin-4-yl)piperazin-1-yl)methyl)isoindoline-1,3-dione] | A (0% ≤ substrate protein remaining % ≤ 80%) | 30 to 40 | 40 to 50 | A (0% ≤ substrate protein remaining % ≤ 80%) | B (80%< substrate protein remaining %≤ 100%) | B (80%< substrate protein remaining %≤ 100%) | A (0% ≤ substrate protein remaining % ≤ 80%) | A (0% ≤ substrate protein remaining % ≤ 80%) |  |  |  |  |  |  |  |  |
| O=C1CCC(N2Cc3cc(CN4CC(n5cnc6cc(F)ccc65)C4)ccc3C2=O)C(=O)N1 (centres unmarked) [GT-04716, 3-(5-((3-(5-fluoro-1H-benzo[d]imidazol-1-yl)azetidin-1-yl)methyl)-1-oxoisoindolin-2-yl)piperidine-2,6-dione] |  |  |  |  |  |  |  |  | B (80%< substrate protein remaining %≤ 100%) | 100 to 500 | B (80%< substrate protein remaining %≤ 100%) | B (80%< substrate protein remaining %≤ 100%) | B (80%< substrate protein remaining %≤ 100%) | 500 to 1000 | B (80%< substrate protein remaining %≤ 100%) | A (0% ≤ substrate protein remaining % ≤ 80%) |
| O=C1CCC(N2Cc3cc(CN4CCN(c5nccc(Cl)c5F)CC4)ccc3C2=O)C(=O)N1 (centres unmarked) [GT-04610, 3-(5-((4-(4-chloro-3-fluoropyridin-2-yl)piperazin-1-yl)methyl)-1-oxoisoindolin-2-yl)piperidine-2,6-dione] |  |  |  |  |  |  |  |  | A (0% ≤ substrate protein remaining % ≤ 80%) | 500 to 1000 | A (0% ≤ substrate protein remaining % ≤ 80%) | A (0% ≤ substrate protein remaining % ≤ 80%) | A (0% ≤ substrate protein remaining % ≤ 80%) | 500 to 1000 | A (0% ≤ substrate protein remaining % ≤ 80%) | A (0% ≤ substrate protein remaining % ≤ 80%) |
| O=C1CCC(N2Cc3cc(CN4CC(c5ccnc6cc(F)ccc56)C4)ccc3C2=O)C(=O)N1 (centres unmarked) [GT-04651, 3-(5-((3-(7-fluoroquinolin-4-yl)azetidin-1-yl)methyl)-1-oxoisoindolin-2-yl)piperidine-2,6-dione] |  |  |  |  |  |  |  |  | A (0% ≤ substrate protein remaining % ≤ 80%) | 500 to 1000 | A (0% ≤ substrate protein remaining % ≤ 80%) | B (80%< substrate protein remaining %≤ 100%) | A (0% ≤ substrate protein remaining % ≤ 80%) | < 500 | A (0% ≤ substrate protein remaining % ≤ 80%) | A (0% ≤ substrate protein remaining % ≤ 80%) |
| O=C1CCC(N2Cc3cc(CN4CCC(c5cccc6c(F)cccc56)CC4)ccc3C2=O)C(=O)N1 (centres unmarked) [GT-04664, 3-(5-((4-(5-fluoronaphthalen-1-yl)piperidin-1-yl)methyl)-1-oxoisoindolin-2-yl)piperidine-2,6-dione] |  |  |  |  |  |  |  |  | A (0% ≤ substrate protein remaining % ≤ 80%) | 100 to 500 | A (0% ≤ substrate protein remaining % ≤ 80%) | A (0% ≤ substrate protein remaining % ≤ 80%) | A (0% ≤ substrate protein remaining % ≤ 80%) | 500 to 1000 | A (0% ≤ substrate protein remaining % ≤ 80%) | A (0% ≤ substrate protein remaining % ≤ 80%) |
| O=C1CCC(N2Cc3cc(CN4CCC(c5ccco5)CC4)ccc3C2=O)C(=O)N1 (centres unmarked) [GT-04618, 3-(5-((4-(furan-2-yl)piperidin-1-yl)methyl)-1-oxoisoindolin-2-yl)piperidine-2,6-dione] |  |  |  |  |  |  |  |  | A (0% ≤ substrate protein remaining % ≤ 80%) | 50 to 100 | A (0% ≤ substrate protein remaining % ≤ 80%) | A (0% ≤ substrate protein remaining % ≤ 80%) | B (80%< substrate protein remaining %≤ 100%) | 500 to 1000 | A (0% ≤ substrate protein remaining % ≤ 80%) | A (0% ≤ substrate protein remaining % ≤ 80%) |
| O=C1CCC(N2C(=O)c3ccc(CN4CCN(c5ncccc5Cl)CC4)cc3C2=O)C(=O)N1 (centres unmarked) [GT-07843, 5-((4-(3-chloropyridin-2-yl)piperazin-1-yl)methyl)-2-(2,6-dioxopiperidin-3-yl)isoindoline-1,3-dione] |  | 30 to 40 | 30 to 40 |  |  |  |  |  |  |  |  |  |  |  |  |  |
| Cc1ccsc1N1CCN(Cc2ccc3c(c2)CN(C2CCC(=O)NC2=O)C3=O)CC1 (centres unmarked) [GT-04582, 3-(5-((4-(3-methylthiophen-2-yl)piperazin-1-yl)methyl)-1-oxoisoindolin-2-yl)piperidine-2,6-dione] |  |  |  |  |  |  |  |  | A (0% ≤ substrate protein remaining % ≤ 80%) | 50 to 100 | A (0% ≤ substrate protein remaining % ≤ 80%) | A (0% ≤ substrate protein remaining % ≤ 80%) | B (80%< substrate protein remaining %≤ 100%) | < 500 | A (0% ≤ substrate protein remaining % ≤ 80%) | A (0% ≤ substrate protein remaining % ≤ 80%) |
| O=C1CCC(N2Cc3cc(CN4CCN(c5nc(N6CCOCC6)nc6c5SCC6)CC4)ccc3C2=O)C(=O)N1 (centres unmarked) [GT-04710, 3-(5-((4-(2-morpholino-6,7-dihydrothieno[3,2-d]pyrimidin-4-yl)piperazin-1-yl)methyl)-1-oxoisoindolin-2-yl)piperidine-2,6-dione] |  |  |  |  |  |  |  |  | B (80%< substrate protein remaining %≤ 100%) | 500 to 1000 | B (80%< substrate protein remaining %≤ 100%) | B (80%< substrate protein remaining %≤ 100%) | A (0% ≤ substrate protein remaining % ≤ 80%) | < 500 | A (0% ≤ substrate protein remaining % ≤ 80%) | A (0% ≤ substrate protein remaining % ≤ 80%) |
| Cc1nc(C2CCN(Cc3ccc4c(c3)CN(C3CCC(=O)NC3=O)C4=O)CC2)c2ccsc2n1 (centres unmarked) [GT-04726, 3-(5-((4-(2-methylthieno[2,3-d]pyrimidin-4-yl)piperidin-1-yl)methyl)-1-oxoisoindolin-2-yl)piperidine-2,6-dione] |  |  |  |  |  |  |  |  | A (0% ≤ substrate protein remaining % ≤ 80%) | 10 to 50 | A (0% ≤ substrate protein remaining % ≤ 80%) | A (0% ≤ substrate protein remaining % ≤ 80%) | A (0% ≤ substrate protein remaining % ≤ 80%) | 500 to 1000 | A (0% ≤ substrate protein remaining % ≤ 80%) | A (0% ≤ substrate protein remaining % ≤ 80%) |
